From patent US6338963B1, “Use of carbon monoxide dependent guanylyl cyclase modifiers to stimulate neuritogenesis” (NeoTherapeutics, Inc., priority 1994, dated 2002)

What was measured:
NT-3 = assay: Two-site ELISA of growth factor protein in rat brain and spinal cord: NT-3; type: in vivo, F344 rats
Method: (§1) Adult female F344 rats were given either AIT-082 (doses: 30 mg/kg/day or a higher dose of 30 mg/ml (˜3,000 mg/kg/day); n=6 rats per group) in their drinking water, or water alone, as a vehicle for control. The duration of the study was seven days, at which time the rats were anesthesized and perfused with ice-cold saline. The brains of the rats were rapidly removed. The brains were placed on a chilled glass plate and dissected into the following regions: basal forebrain, frontal cortex, parietal cortex, cerebellum, spinal cord, and hippocampal formation. Tissues were stored at −70° C. until assayed in a specific two-site ELISA for either NGF, BDNF, NT-3, or GNDF.
(§2) The results are shown in FIGS. 45 (BDNF), 46 (NT-3), 47 (GDNF) and 48 (NGF). For the results shown in FIGS. 45-48, animals were given only water (VEH, n=6) or water with AIT-082 at either 30 mg/kg/day (n=6) or 30 mg/ml (n=6) for seven days. The levels of each growth factor were determined in the frontal cortex (F. Cor.), parietal cortex (P.Cor.), hippocampal formation (Hipp.), basal forebrain (B.F.), cerebellum (Cer.), or spinal cord (Cord) using a specific two-site ELISA for each growth factor.
(§3) Adult female rats were given AIT-082 (30 mg/kg/day) in their drinking water or drinking water alone (n=6 for each group) for seven days prior to receiving a bilateral fimbria fornix transection (FFT).
(§4) The results are shown in FIGS. 49 (BDNF), 50 (NT-3), 51 (GDNF) and 52 (NGF). For the results shown in the Figures, animals were given only water (VEH, n=3) or water with AIT-082 at 30 mg/kg/day (n=3). Levels of the growth factor were determined in frontal cortex (F.Cor.), parietal cortex (P.Cor.), hippocampal formation (Hipp.), basal forebrain (B.F.), cerebellum (Cer.), or spinal cord (Cord) using a specific two-site ELISA for each growth factor.
(§5) Aged female Fischer 344 rats (obtained from National Institute on Aging; 24 months on arrival) were given AIT-082 (30 mg/kg/day) in their drinking water or drinking water alone, for a period of 30 days (n=5 rats per group). After 30 days, animals were sacrificed and fresh tissues were dissected as described above. An additional set of young animals (n=5) was processed along with the aged rats for comparison.
(§6) Results are shown in FIGS. 53 (BDNF), 54 (NT3), 55 (GDNF), and 56 (NGF). As described above, for the results shown in these figures, aged rats (24 months of age) were given water (vehicle control; n=5) or water with AIT-082 (at 30 mg/kg/day; n=5 for 30 days). A separate group of young untreated animals was also included (n=5). Levels of each growth factor were determined in frontal cortex (F.Cor.), parietal cortex (P. Cor.), hippocampal formation (Hipp.), basal forebrain (B.F.), cerebellum (Cer.) or spinal cord (Cord) using a specific two-site ELISA.

rat striatum = assay: MRI of rat striatum injected with NMDA; type: in vivo
Method: T-2 weighted MRI photos of transverse brain 3-mm thick slices were performed (TR/TE=7400/115 ms; matrix 483×1024; FLV 250). Magnetic resonance images were acquired using 1.5 T scanner (Vision, Siemens-Erlangen). […] All animals survived the surgery and continued to receive treatment for an additional three days, at which time they were sacrificed and tissues were collected as described above.

BDNF = assay: Two-site ELISA of growth factor protein in rat brain and spinal cord: BDNF; type: in vivo, F344 rats
Method: as §1, §2, §3, §4, §5, §6

C57BL/6 mice = assay: Ethanol-induced working memory deficit (win-shift); type: in vivo; settings: Ethanol 0.5 gm/kg i.p. + AIT-082 30 mg/kg i.p. 1 hour prior
Method: Six month old male C57BL/6 mice were evaluated in the win-shift model in combination with treatment with ethanol, a non-specific memory suppressant, and AIT-082. Subjects were treated with saline (control) or AIT-082 (30 mg/kg. i.p.) 1 hour prior to testing. Ethanol was administered at a dose of 0.5 gm/kg i.p. ten minutes prior to testing.

CNTF mRNA = assay: RT-PCR of growth factor mRNA after T8 spinal cord hemisection: CNTF; type: in vivo, Wistar rats
NGF [1] = assay: Two-site ELISA of growth factor protein in rat brain and spinal cord: NGF; type: in vivo, F344 rats
Method: as §1, §2, §3
as §4, with “For the results shown in the Figures, animals were given only water (VEH, n=3) or water with AIT-082 at 30 mg/kg/day (n=3).” left out, “factor. […]” for “factor.”
Results are shown in FIGS. 53 (BDNF), 54 (NT3), 55 (GDNF), and 56 (NGF). […] Levels of each growth factor were determined in frontal cortex (F.Cor.), parietal cortex (P. Cor.), hippocampal formation (Hipp.), basal forebrain (B.F.), cerebellum (Cer.) or spinal cord (Cord) using a specific two-site ELISA.

mice [2] = settings: oral or intraperitoneal route, preliminary
mice [3] = assay: Hot plate nocioception; type: in vivo; settings: hot plate 55° C.
Method: Mice were placed on an electric hot plate (Ominitech) at 55° C. and the latency time until the subject licked his hind paw was measured. If there was no response by 45 seconds, the trial was terminated. By this test there was no effect of AIT-082 on nocioception.

NGF [4] = assay: Summary of effects on growth factor mRNA and protein (Table R): NGF; set-up: key: ± = mRNA; + = protein; nt = not tested; settings: Aged Brain
Text: The constellation of effects of AIT-082 on production of mRNA encoding growth factors and on production of growth factor proteins is shown in Table R. The results summarized in […] show both transcriptional and translational effects on growth factors that are in the categories of neurotrophins, pleiotrophins, members of the S100 family of EF hand calcium binding proteins, and members of the TGFβ superfamily. As indicated, effects have been shown at both the mRNA (transcriptional) and protein (translational) levels.

[5] = aged rats, 30 mg/kg/day 30 days, any brain region

In the case of O=C(CCn1cnc2c(=O)[nH]cnc21)Nc1ccc(C(=O)O)cc1 [AIT-082, N-4-carboxyphenyl-3-(6-oxohydropurin-9-yl)propanamide], the “NT-3 protein levels compared to vehicle controls” value (NT-3; FFT-lesioned rats, 30 mg/kg/day, basal forebrain) was “threefold”, the NT-3 protein levels (NT-3; aged rats, 30 mg/kg/day 30 days, hippocampus) was “restored NT-3 protein levels to those of young animals” and the NT-3 protein levels (NT-3; intact adult rats, 30 mg/kg/day, cerebellum) was “increased NT-3 levels in cerebellum over vehicle controls”. For the same molecule, the NT-3 protein levels (NT-3; intact adult rats, 3000 mg/kg/day, cerebellum) was “absent”, the “MRI brightness of the lesion” value (rat striatum; AIT locally co-injected with NMDA) was “disappeared” and the “MRI brightness of the lesion” value (rat striatum; systemic (intraperitoneal) AIT-082 60 mg/kg) was “significantly reduced”. The “BDNF protein levels over vehicle controls” value (BDNF; FFT-lesioned rats, 30 mg/kg/day, frontal cortex, significance not achieved) was “almost threefold”, the BDNF protein levels (BDNF; [5]) was “no effect” and the “BDNF protein levels over vehicle controls” value (BDNF; intact adult rats, 30 mg/kg/day in drinking water 7 days, frontal cortex) was “more than twofold”. The “BDNF protein levels over vehicle controls” value (BDNF; intact adult rats, 3000 mg/kg/day, frontal cortex) was “not seen”, the “BDNF protein levels over vehicle controls” value (BDNF; intact adult rats, spinal cord, not significant (p>0.05)) was “twofold” and the “Correct trials (mean number of correct responses per 10 trials ± S.E.)” value (C57BL/6 mice) was 7.89 ± 0.54. The “CNTF mRNA level” value (CNTF mRNA; at the level of the lesion) was “increased mean CNTF mRNA levels over control animals, although not statistically so”, the “CNTF mRNA level” value (CNTF mRNA; caudal to lesion, 7 days) was “no significant effects” and the “CNTF mRNA level” value (CNTF mRNA; rostral to lesion, 3 days, sham-operated over lesion animals) was “significantly increased”. The “CNTF mRNA level” value (CNTF mRNA; rostral to lesion, 7 days, control animals, over water alone (p=0.017)) was “robust increase”, the “CNTF mRNA level” value (CNTF mRNA; rostral to lesion, 7 days, relative to lesion alone (p=0.056)) was “increased CNTF mRNA levels” and the NGF protein levels (NGF [1]; FFT-lesioned rats, 30 mg/kg/day) was “No significant increases”. For the same molecule, the NGF protein levels (NGF [1]; [5]) was “no effect”, the NGF protein levels (NGF [1]; intact adult rats) was “No changes” and the LD50 (mice [2]) was greater than 3000 mg/kg. The “effect on nocioception (hot plate latency)” value (mice [3]) was “no effect” and the “NGF, effect on mRNA/protein production” value (NGF [4]) was “±”.
